Experimental data published in the METLIN SMRT retention time set (Domingo-Almenara et al. 2019).

Test: gradient 5% acetonitrile 3 min, to 50% in 2 min, to 85% in 15 min, held 3 min, 100 µL/min
Conditions: column: Zorbax Extend-C18 2.1 x 50 mm; eluents: water / acetonitrile, 0.1% formic acid
Procedure, shortened: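 In both positive and negative ionization mode, a quadrupole time-of-flight mass spectrometer coupled to HPLC analyzed pure standards run in mixtures of ~100 molecules. The Zorbax Extend-C18 column (2.1 × 50 mm, 1.8 μm) was operated at 100 μL/min with water and acetonitrile, each containing 0.1% formic acid. The dead volume was 40 μL and the dwell volume 900 μL. Retention time came from adduct peaks that were computationally picked and individually inspected by hand.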

Row | SMILES | RP-LC retention time [s]
1 | CC(=O)N1CCc2cc(N3CC(C(=O)NCc4cccnc4)CC3=O)ccc21 (centres undefined) | 557
2 | Cc1cc(CN2CCC(CNC(=O)CSc3ccc(F)cc3)CC2)c(C)o1 | 583
3 | COc1ccc(C2C(C(=O)O)CCC(=O)N2c2ccc(OC)cc2)cc1 (centres undefined) | 656
4 | CC(C)N1CCn2c(nc3cc(C(=O)NCc4cccc(Cl)c4)ccc32)C1=O | 733
5 | CS(=O)(=O)Nc1ccc(C2(C(=O)NCc3ccco3)CCCCC2)cc1 | 806
6 | COc1ccc(NC(=O)Cn2c(C)cc(-c3nnc(-c4ccc(F)cc4)o3)c2C)cc1F | 962
7 | Cc1cc(C)cc(NC(=O)Cn2c(C(C)C)nc3c(c2=O)CCN(Cc2ccccc2)C3)c1 | 759
8 | Cc1ccc(C2c3[nH]c4ccccc4c3CCN2C(=O)c2cccs2)cc1 (centres undefined) | 1200
9 | O=C(CC1CCCCN1S(=O)(=O)c1ccc(Cl)cc1)NCc1cccnc1 (centres undefined) | 568
10 | O=C(NCc1ccccc1C(F)(F)F)C1=C2CCCN2c2ccccc2S1(=O)=O | 916
11 | COCCNC(=O)CN1CCN(c2cc(C(=O)O)c3cc(NC(=O)C(C)(C)C)ccc3n2)CC1 | 561
12 | Cc1ccc(C2Cn3cnc(C(=O)N4CCC(C(=O)NC(C)c5ccccc5)CC4)c3CO2)cc1 (centres undefined) | 756
13 | CN(C)CCN(C(=O)CCc1ccccc1)c1nc2ccc(F)cc2s1 | 773
14 | COC(=O)c1cnc2nc(C)ccc2c1Nc1ccc(Br)cc1 | 705
15 | Cc1ccc(C)c(S(=O)(=O)N2CCCN(C)c3ccccc32)c1 | 1100
16 | CCc1noc(NC(C)=O)c1-c1ccc(OC)c(S(=O)(=O)NC2CCCC2)c1 | 801
17 | CCCN1C(=O)CN(S(C)(=O)=O)CC1(C)C(=O)NCc1ccc(Cl)cc1 (centres undefined) | 758
18 | O=C(Nc1cnc(N2CCOCC2)nc1)c1ccccc1Br | 725
19 | CCOC(=O)C(=O)Nc1ccc(C(F)(F)F)cc1 | 834
20 | O=C(NCc1nc(-c2ccccc2)no1)c1csc(-c2cnccn2)n1 | 779
21 | COc1cccc(CNC(=O)N2CCCC2c2cc(C(C)C)on2)c1 (centres undefined) | 832
22 | O=c1n(Cc2ccc(Cl)cc2)nc2c(S(=O)(=O)N3CCCCC3)cccn12 | 919
23 | CC1CCN(S(=O)(=O)c2ccc(-c3nnc(C(=O)NCCN(C)C)o3)cc2)CC1 | 670
24 | CCCN(C)c1nccnc1OC1CCN(C(=O)C2CCCCC2)C1 (centres undefined) | 938
25 | Cc1ccc(NC(=O)N2CCc3nc(-c4ccccc4)ncc3C2)cc1F | 988
26 | O=C(NCCCN1CCCC1)C1CCN(c2nnc3ccc(Cl)cn23)CC1 | 556

Row | SMILES | RP-LC retention time [s]
27 | COc1ccc2[nH]cc(CCNC(=O)c3cc4n(n3)CCCN(Cc3ccc(Cl)cc3)C4=O)c2c1 | 693
28 | Cc1ccc(NC(=O)C2CCCN(c3nc4c(s3)c(C)nn4-c3cccc(F)c3)C2)c(C)c1 (centres undefined) | 1280
29 | Cn1cc(CC(=O)N2CCN(c3ccccc3F)CC2)c2ccccc21 | 915
30 | CCOc1ccc(S(=O)(=O)N2CCN(c3cc(C)nc(NC4CCCCC4)n3)CC2)cc1 | 839
31 | CCCNC(=O)C1CCCN(c2nc3ncn(CC(=O)Nc4cccc(Cl)c4)c(=O)c3s2)C1 (centres undefined) | 731
32 | CCOC(=O)c1c(C)oc2ncnc(NCC3CCN(Cc4ccccc4F)CC3)c12 | 694
33 | CCc1noc(CC2CCOC3(CCN(S(=O)(=O)c4c(C)cc(C)cc4C)CC3)C2)n1 (centres undefined) | 1190
34 | COc1ccccc1NC(=O)c1c(O)c2cccnc2n(-c2ccc(F)cc2)c1=O | 864
35 | O=C(Cn1nc(N2CCOCC2)c2ccccc2c1=O)Nc1ccc(F)cc1Cl | 816
36 | Cc1ccc(S(=O)(=O)N2C[C@@H]3C[C@H](NC(=O)c4cccnc4)[C@H]2C3)cc1C | 724
37 | COc1ccc(NC(=O)Cn2nc3c(Oc4cccc(F)c4)nccn3c2=O)cc1 | 814
38 | Cc1cc(=O)n2c(-c3ccc(NC(=O)Nc4ccc(F)c(F)c4)cc3)csc2n1 | 776
39 | Cc1ccc(NC(=O)N2CCc3c(c(-c4nc(C)no4)nn3C)C2)c(C)c1 | 762
40 | COc1ccccc1NC(=O)Cc1nnc(-c2ccc3ncccc3c2)o1 | 724
41 | CCCS(=O)(=O)NCC1CC(=O)N(c2ccc(F)cc2)C1 (centres undefined) | 669
42 | O=C(Nc1ccccc1Cl)c1cnc(-c2ccc(F)cc2)nc1-c1ccncc1 | 1000
43 | COC1C(=O)N(c2cccc(F)c2)C12CCN(S(=O)(=O)c1cccs1)CC2 (centres undefined) | 937
44 | CC(Cc1ccco1)NC(=O)C(C)n1c2ccccc2c2cnn(C)c(=O)c21 (centres undefined) | 603
45 | Cn1cc(C2=CCN(C(=O)NC3CCCC3)CC2)c2cccnc21 | 754
46 | Cn1cc(-c2nc(C(=O)NCc3ccccc3Cl)cs2)c2cccnc21 | 989
47 | CNC(=O)c1cc(N(C)C)nc2c(Cl)cccc12 | 666
48 | Cc1cc(NC(=O)NCCCSc2nc3ccccc3s2)no1 | 805
49 | COc1cc2c(cc1OC)C(C(=O)NCCCN1CCOCC1)C(c1cccs1)N(C)C2=O (centres undefined) | 596
50 | c1ccc(-n2nnc(-c3noc(-c4cccnc4)n3)c2-c2ccncc2)cc1 | 737
51 | CC(C)Cn1ccc2c(cc(C(=O)Nc3ccccc3Br)n2C)c1=O | 881
52 | O=C(CCCc1nc2cccnc2n1Cc1ccccc1)N1CCN(c2ccccn2)CC1 | 603

Other lines, results leading:

Row | RP-LC retention time [s] | SMILES
53 | 614 | CCCN(CCC)Cc1ccc(CNC(=O)C2CCCN(c3nnc(N4CCCC4=O)s3)C2)o1 (centres undefined)
54 | 964 | C=CCN1C(=O)COc2ccc(-c3csc(NC(=O)C(C)(C)C)n3)cc21
55 | 630 | Cc1cc(C)n(-c2cc(NCCNC(=O)c3c[nH]c4ccccc34)nc(C)n2)n1
56 | 744 | CC(CCc1ccccc1)NC(=O)Cc1nnc(-c2ccncc2)o1 (centres undefined)
57 | 1090 | Cc1ccc(-c2noc(Cn3c(=O)n(-c4ccccc4F)c(=O)c4sccc43)n2)cc1C
58 | 572 | O=C(NCCn1nc(-n2ccnc2)ccc1=O)c1cc(-c2ccccc2)on1
59 | 642 | CCCN(C)c1nccn2c(=O)n(CC(=O)Nc3ccc4c(c3)OCCO4)nc12
60 | 840 | CCN1c2cc(Cl)ccc2C(=O)NC12CCN(C(=O)NCc1ccc(F)cc1)CC2
61 | 686 | Cc1ccc(CNC(=O)c2cn3cccc(C)c3n2)cc1
62 | 735 | CC1(C(=O)N2CC(F)(F)C[C@H]2c2nc(-c3ccncc3)no2)CC1
63 | 691 | CCn1cc(CCNC(=O)c2ccccc2Cl)c2cccnc21
64 | 622 | CCN1CCCC1CNC(=O)c1nc(CCS(=O)(=O)c2ccc(OC)cc2)no1 (centres undefined)
65 | 743 | Cc1ccn2cc(-c3ccc(NS(=O)(=O)c4ccc(Cl)c(Cl)c4)cc3)nc2n1
66 | 762 | Cc1ccc(N2CCC(NC(=O)C3CCCC3)C2=O)cc1 (centres undefined)
67 | 740 | O=C(c1ccc2c(c1)OCO2)N1CCC(c2nc(C3CC3)no2)C1 (centres undefined)
68 | 673 | Cc1ccccc1NS(=O)(=O)c1cc(-c2[nH]ncc2C(=O)N(C)C)oc1C
69 | 864 | CCCN1C(=O)CN(S(=O)(=O)c2ccc(C)cc2)CC1(C)C(=O)NCc1ccccc1 (centres undefined)
70 | 703 | CC(=O)Nc1cccc(N2CC(C(=O)Nc3ccc(Br)c(C)c3)CC2=O)c1 (centres undefined)
71 | 592 | CCc1nnc2nc(N3CCN(C(=O)c4cccs4)CC3)cc(C)n12

Row | RP-LC retention time [s] | SMILES
72 | 682 | Cn1cnc2ccc(-c3noc(-c4cccc(NC(=O)c5ccco5)c4)n3)cc21
73 | 582 | CCn1cc(C)c(C(=O)O)c1CC(=O)NCCN1CCOCC1
74 | 777 | CC1(C(=O)NCc2ccc(F)cc2)Cn2cnc(C(=O)NCc3ccc(F)cc3)c2C(=O)N1C1CC1 (centres undefined)
75 | 626 | CCc1ccc(NC(=O)N2CCN(Cc3ccc4nccnc4c3)CC2)cc1
76 | 786 | Cc1nc(-c2cccnc2)n2c(=O)n(CCc3ccccc3)nc2c1C
77 | 918 | Cc1ccc(-c2nc(N3CCSCC3)ncc2C(=O)O)cc1
78 | 654 | CO[C@H]1C(=O)N(C(C)C)[C@H]1C1CCN(C(=O)CCn2cc(C)cn2)CC1
79 | 850 | Cc1ccc(NC(=O)C2CCCN(S(=O)(=O)c3cn(C(C)C)cn3)C2)c(Br)c1 (centres undefined)
80 | 902 | CCn1ccc2c(cc(C(=O)Nc3ccc(C(C)C)cc3)n2C)c1=O
81 | 1010 | Cc1cc2ccccc2n1CCNC(=O)C(=O)c1c[nH]c2ccccc12
82 | 1090 | CCc1ccc(-c2nc(C3CC(=O)N(c4ccc(OC)cc4)C3)no2)cc1 (centres undefined)
83 | 578 | CCC(=O)N1CCc2cc(N3CC(C(=O)NCc4ccncc4)CC3=O)ccc21 (centres undefined)
84 | 750 | CN(CC1CCOCC1)C(=O)Nc1cccc(Cl)c1
85 | 1180 | CCc1ccccc1NC(=O)Cn1nc(N2CCCC(C)C2)c2ccccc2c1=O (centres undefined)
86 | 1170 | Cc1cc(-c2ccc(N3C(=O)CC4(CCCC4)C3=O)c(C)c2)ccc1N1C(=O)CC2(CCCC2)C1=O
87 | 724 | Cc1ccc(Cl)c(NC(=O)c2[nH]c3cc(C)sc3c2CN2CCOCC2)c1
88 | 945 | CCOc1ccc(S(=O)(=O)N2CCc3c(c(-c4nnc(-c5ccccc5F)o4)nn3C)C2)cc1
89 | 599 | O=C(NCC1(CO)CC1)c1ccccc1F
